Data as given in patent US20210380951A1, “RNA-BASED METHODS TO LAUNCH HEPATITIS B VIRUS INFECTION” (priority 2018, published 2021).
Counter-ions that a name gives are not always drawn.

Tests used:
WT HBV = assay: RNA launch method: inhibition of HBV replication from transfected pgRNA, read out as percent HBsAg (CLIA); type: cell-based; details: HBsAg with vs without inhibitor, FIG. 4
Protocol: The inhibitory effect of three reverse-transcriptase inhibitors, Entecavir (ETV), Tenofovir Disoproxil Fumarate (TDF), and Lamivudine (LAM) on WT HBV was compared. The inhibitory effect of LAM on the HBV viral variant M204V was also measured. The inhibition by the reverse-transcriptase inhibitors was determined as percent HBsAg by comparing the level of HBsAg in the presence and absence of the inhibitors.
HepG2-NTCP or Huh-7.5-NTCP cells were seeded at 2.5×10^5 cells per well in six-well plates two days before transfection. The media was changed to 2 ml DMEM containing 1.5% FBS and 0.1 mM NEAA just before transfection. […]
HBeAg and HBsAg were quantified using a chemiluminescence immunoassay (CLIA) kit (Autobio Diagnostics Co., Zhengzhou, China) according to the manufacturer's instructions. To quantify HBV DNA, total DNA was extracted from infected or RNA-transfected cells using QIAamp DNA Blood Mini Kit (Qiagen, cat. #51106) and HBV DNA was detected by qPCR as previously described (Michalidis et al., Sci Rep. 2017, November 30:7(1):16616). For each experiment, cells were transfected with T7-RFP as a negative control and DNA quantified from these cells was used to define the background. […]

chronic HBV = details: chronically infected patients, injectable; cited from earlier work

| Molecule | inhibitory effect on WT HBV (HBV replication, percent HBsAg) (WT HBV) | success rate of curing chronic HBV (chronic HBV) [%] |
| --- | --- | --- |
| C=C1[C@H](CO)[C@@H](O)C[C@@H]1n1cnc2c(=O)[nH]c(N)nc21 [Entecavir] | inhibited HBV replication in a dose-dependent manner | – |
| CC(C)OC(=O)OCOP(=O)(CO[C@H](C)Cn1cnc2c(N)ncnc21)OCOC(=O)OC(C)C [Tenofovir Disoproxil Fumarate] | inhibited HBV replication in a dose-dependent manner | – |
| interferon alpha [IFNα] | – | ~10 |
